Laboratory results taken from ChEMBL document CHEMBL3351455, “Discovery of 2-(cyclopentylamino)thieno[3,2-d]pyrimidin-4(3H)-one derivatives as a new series of potent phosphodiesterase 7 inhibitors” (J Med Chem, 2014).

How the values were obtained:
[1] = target: High affinity 3',5'-cyclic-AMP phosphodiesterase 7A (Homo sapiens, UniProt Q13946); experiment: Inhibition of human PDE7A1 expressed in insect cells assessed as inhibition of [3H]cAMP to [3H]AMP hydrolysis after 30 mins by scintillation counting
Sequence of High affinity 3',5'-cyclic-AMP phosphodiesterase 7A (Q13946 whole entry): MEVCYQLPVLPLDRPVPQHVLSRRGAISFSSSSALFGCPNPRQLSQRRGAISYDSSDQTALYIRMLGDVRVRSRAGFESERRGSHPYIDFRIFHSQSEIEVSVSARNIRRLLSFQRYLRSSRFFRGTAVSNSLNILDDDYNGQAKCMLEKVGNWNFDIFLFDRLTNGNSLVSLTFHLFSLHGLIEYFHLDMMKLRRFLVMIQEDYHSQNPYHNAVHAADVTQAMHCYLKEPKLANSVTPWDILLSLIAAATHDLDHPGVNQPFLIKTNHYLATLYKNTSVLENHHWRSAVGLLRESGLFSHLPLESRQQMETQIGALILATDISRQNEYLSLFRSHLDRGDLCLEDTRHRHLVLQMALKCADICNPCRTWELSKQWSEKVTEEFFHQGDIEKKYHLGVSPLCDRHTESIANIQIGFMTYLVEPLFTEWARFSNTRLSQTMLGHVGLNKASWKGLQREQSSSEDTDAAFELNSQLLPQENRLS

[2] = system: Lymphocyte; experiment: Inhibition of IL2 production in activated mouse lymphocytes after 3 hrs by ELISA; type: functional, cell-based
[3] = target: 3',5'-cyclic-AMP phosphodiesterase 4B (Homo sapiens, UniProt Q07343); experiment: Inhibition of human PDE4B1 expressed in insect cells assessed as inhibition of [3H]cAMP to [3H]AMP hydrolysis after 30 mins by scintillation counting
Sequence of 3',5'-cyclic-AMP phosphodiesterase 4B (Q07343 whole entry): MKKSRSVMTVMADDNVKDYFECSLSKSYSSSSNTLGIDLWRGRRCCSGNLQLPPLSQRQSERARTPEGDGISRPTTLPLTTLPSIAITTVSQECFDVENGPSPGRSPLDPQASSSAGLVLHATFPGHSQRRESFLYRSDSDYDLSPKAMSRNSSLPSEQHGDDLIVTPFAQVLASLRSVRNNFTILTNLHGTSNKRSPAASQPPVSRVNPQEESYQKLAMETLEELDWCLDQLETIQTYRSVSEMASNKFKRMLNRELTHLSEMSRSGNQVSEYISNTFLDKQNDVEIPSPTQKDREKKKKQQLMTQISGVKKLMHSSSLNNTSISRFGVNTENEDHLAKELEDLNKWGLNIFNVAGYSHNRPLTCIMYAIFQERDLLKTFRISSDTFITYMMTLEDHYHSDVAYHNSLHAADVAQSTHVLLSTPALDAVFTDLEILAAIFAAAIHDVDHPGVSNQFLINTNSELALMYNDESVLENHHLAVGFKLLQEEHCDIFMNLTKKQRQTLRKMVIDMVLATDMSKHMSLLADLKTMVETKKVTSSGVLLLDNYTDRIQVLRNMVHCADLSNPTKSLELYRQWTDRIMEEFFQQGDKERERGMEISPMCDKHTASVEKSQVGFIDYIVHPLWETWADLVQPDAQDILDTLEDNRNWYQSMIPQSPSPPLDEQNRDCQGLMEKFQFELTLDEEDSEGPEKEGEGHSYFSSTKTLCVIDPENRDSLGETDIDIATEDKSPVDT

[4] = Permeability of the compound by PAMPA; type: ADME
[5] = system: Liver microsome; experiment: Stability in human liver microsomes; type: ADME
[6] = system: Liver microsome; experiment: Stability in rat liver microsomes; type: ADME

| IC50 [1] | SMILES | IC50 [2] | IC50 [3] | permeability [4] | Stability [5] | Stability [6] |
| --- | --- | --- | --- | --- | --- | --- |
| 0.16 µM | C=CCNc1nc2cc(-c3ccc(N4CCN(C(C)C)CC4)cc3)sc2c(=O)n1C | – | – | – | – | – |
| 1.1 µM | C=CCNc1nc2cc(-c3cccc(C(=O)NCCO)c3)sc2c(=O)n1C | – | – | – | – | – |
| 0.31 µM | C=CCNc1nc2cc(-c3ccc(C(=O)NCCCN(C)C)cc3)sc2c(=O)n1C | – | – | – | – | – |
| 6.8 µM | C=CCNc1nc2cc(-c3ccccc3)sc2c(=O)n1C | – | – | – | – | – |
| 5 µM | C=CCNc1nc2ccsc2c(=O)n1C | – | – | – | – | – |
| 0.74 µM | CCn1c(NC2CCCCC2)nc2ccsc2c1=O | – | – | – | – | – |
| 11 µM | CCn1c(NC2CCCC2)nc2cc(C)sc2c1=O | – | – | – | – | – |
| 6.5 µM | CCc1cc2nc(NC3CCCC3)n(CC)c(=O)c2s1 | – | 3.5 µM | – | – | – |
| > 1 µM | CCn1c(NC2CCCC2)nc2cc(CNc3cccnc3)sc2c1=O | – | 0.92 µM | – | – | – |
| 2.6 µM | CCn1c(NC2CCCC2)nc2cc(C(=O)Nc3ccc(N4CCC(O)CC4)nc3)sc2c1=O | – | – | – | – | – |
| – | C#Cc1csc2c(=O)n(CC)c(NC3CCCC3)nc12 | 0.56 µM | 3 µM | – | – | – |
| 0.039 µM | CCn1c(NC2CCCC2)nc2c(CCCN3CCOCC3)csc2c1=O | 2 µM | 3.4 µM | – | – | – |
| 0.005 µM | CCn1c(NC2CCCC2)nc2c(-c3cccc(C(=O)OC)c3)csc2c1=O | 0.29 µM | 0.48 µM | – | – | – |
| 0.0049 µM | CCn1c(NC2CCCC2)nc2c(-c3ccc(C(=O)OC)cc3)csc2c1=O | 1.3 µM | 1 µM | – | – | – |
| 0.0023 µM | CCn1c(NC2CCCC2)nc2c(-c3ccc(CN4CCOCC4)cc3)csc2c1=O | 1 µM | 0.64 µM | permeable | Unstable | Unstable |
| – | CCn1c(NC2CCCC2)nc2c(-c3ccc(N4CCOCC4)nc3)csc2c1=O | 0.077 µM | 0.52 µM | permeable | Unstable | Unstable |

| SMILES | IC50 [1] | IC50 [2] | IC50 [3] | permeability [4] | Stability [5] | Stability [6] |
| --- | --- | --- | --- | --- | --- | --- |
| CCn1c(NC2CCCC2)nc2ccsc2c1=O | 0.15 µM | 5.4 µM | 4.9 µM | – | – | – |
| CCn1c(NC2CCCC2)nc2c(C)csc2c1=O | 0.098 µM | > 3 µM | 3.8 µM | – | – | – |
| CCc1csc2c(=O)n(CC)c(NC3CCCC3)nc12 | 0.042 µM | 2.9 µM | 5.9 µM | – | – | – |
| C=Cc1csc2c(=O)n(CC)c(NC3CCCC3)nc12 | 0.03 µM | 0.98 µM | 3.7 µM | – | – | – |
| CCn1c(NC2CCCC2)nc2c(C#N)csc2c1=O | 0.067 µM | 0.89 µM | 3.2 µM | – | – | – |
| CCn1c(NC2CCCC2)nc2c(C#Cc3cccnc3)csc2c1=O | 0.0042 µM | 1.3 µM | 1.4 µM | – | – | – |
| CCn1c(NC2CCCC2)nc2c(C#CCN3CCOCC3)csc2c1=O | 0.019 µM | 1.7 µM | 0.82 µM | – | – | – |
| CCn1c(NC2CCCC2)nc2c(CCc3cccnc3)csc2c1=O | 0.0073 µM | 1 µM | 1.1 µM | – | – | – |
| CCn1c(NC2CCCC2)nc2c(-c3ccccc3)csc2c1=O | 0.0056 µM | 1.8 µM | 0.72 µM | – | – | – |
| CCn1c(NC2CCCC2)nc2c(-c3ccccc3C(=O)OC)csc2c1=O | 0.38 µM | 9.1 µM | 3.8 µM | – | – | – |
| CCn1c(NC2CCCC2)nc2c(-c3cccnc3)csc2c1=O | 0.002 µM | 0.089 µM | 0.38 µM | permeable | Unstable | Unstable |
| CCn1c(NC2CCCC2)nc2c(N3CCN(C(=O)OC(C)(C)C)CC3=O)csc2c1=O | 0.012 µM | 3 µM | 3.3 µM | – | – | – |
